Measurements: patent publication US11597933B2, “Combination therapy of lymphoma” (The Trustees of Columbia University in the City of New York, priority 2017, dated 2023)
Where two headings read alike, the source gives them in different places. Blank lines part the entries; values can stand above or below the molecule they belong to.

How the values were obtained:
Pfeiffer = assay: Cell viability assay, Pfeiffer; type: cell-based; conditions: for IC50: Pfeiffer
From the text: (§1) OCI-LY1, SU-DHL-2, SU-DHL-6, Pfeiffer, Farage, Toledo, Riva, HBL-1, Jeko-1, Z-138, H9, and HH were obtained from ATCC. OCI-LY7, OCI-LY10, SU-DHL-10 and OCI-LY3 were obtained from DSMZ. PF382, and P12 were a gift from the laboratory of Adolfo Fernando. TLOM-1 and MT-1 were obtained from Kyoto University; and MT-2 was obtained from Memorial Sloan Kettering Cancer Center. All cell lines were authenticated and screened for mycoplasma using the ATCC/Promega STR Authentication Testing Kit and Lonza MycoAlert.
(§2) Synergy was assessed by excess over bliss (EOB). […] Criteria for analyzing interactions between biologically active agents. Advances in cancer research 1981; 35:269-335.
(§3) To understand the effects of EZH2 inhibition and HDAC inhibition in cell lines with or without EZH2 dysfunction and HAT mutations, a panel of 21 lymphoma cell lines were exposed to GSK126, an EZH2 inhibitor, and romidepsin, a pan-HDAC inhibitor, as single agents. Both B-cell and TCL were selected in order to establish a range of drug sensitivity and mutational status. EZH2 status and HAT mutational status were confirmed.

TLOM-1 = assay: Cell viability assay, TLOM-1; type: cell-based
From the text: as §1, §2, §3

Toledo = assay: Cell viability assay, Toledo; type: cell-based
From the text: as §1, §2, §3

HBL-1 = assay: Cell viability assay, HBL-1; type: cell-based
From the text: as §1, §2, §3

Jeko-1 = assay: Cell viability assay, Jeko-1; type: cell-based
From the text: as §1, §2, §3

Farage = assay: Cell viability assay, Farage; type: cell-based
From the text: as §1, §2, §3

Z-138 = assay: Cell viability assay, Z-138; type: cell-based
From the text: as §1, §2, §3

Riva = assay: Cell viability assay, Riva; type: cell-based
From the text: as §1, §2, §3

OCI-LY10 = assay: Cell viability assay, OCI-LY10; type: cell-based
From the text: as §1, §2, §3

H9 = assay: Cell viability assay, H9; type: cell-based
From the text: as §1, §2, §3

HEK 293T cells = assay: H3K27 acetylation and methylation in HEK 293T cells; type: cell-based; conditions: single agent exposure in HEK 293T cells
OCI-LY3 = assay: Cell viability assay, OCI-LY3; type: cell-based
From the text: as §1, §2, §3

[1] = mouse, in vivo
Method: (§4) F. Serum romidepsin pharmacokinetic parameters after single injection of GSK and romidepsin over 24 hours.

MT-1 = assay: Cell viability assay, MT-1; type: cell-based
From the text: as §1, §2, §3

PF-382 = assay: Cell viability assay, PF-382; type: cell-based
From the text: as §1, §2, §3

OCI-LY7 = assay: Cell viability assay, OCI-LY7; type: cell-based
From the text: as §1, §2, §3

P12 = assay: Cell viability assay, P12; type: cell-based
From the text: as §1, §2, §3

SU-DHL-10 = assay: Cell viability assay, SU-DHL-10; type: cell-based
From the text: as §1, §2, §3

MT-2 = assay: Cell viability assay, MT-2; type: cell-based
From the text: as §1, §2, §3

HH = assay: Cell viability assay, HH; type: cell-based
From the text: as §1, §2, §3

SU-DHL-2 = assay: Cell viability assay, SU-DHL-2; type: cell-based
From the text: as §1, §2, §3

SU-DHL-6 = assay: Cell viability assay, SU-DHL-6; type: cell-based
From the text: as §1, §2, §3

OCI-LY1 = assay: Cell viability assay, OCI-LY1; type: cell-based
From the text: as §1, §2, §3

[2] = Pharmacokinetic analysis of serum and tumor samples; conditions: single exposure to GSK126 and romidepsin, over 24 hours
Method: as §4

in vivo = conditions: mouse, serum, ip
Method: as §4

RbAp 46/48 (RBBP4) = assay: Acetyl-lysine immunoprecipitation and mass spectrometry; type: cell-based; conditions: SU-DHL-10 cells, acetyl-lysine antibody IP, compared to control, FDR<1.0%
Method: Immunoprecipitation was performed using Thermo Scientific™ Pierce™ MS-Compatible Magnetic IP Kit (#84840). Protein was incubated with EZH2 or acetylated-lysine antibody. Antibody bound proteins were eluted and run into SDS PAGE. The excised gel lane pieces were reduced, alkylated, and digested in Trypsin Gold (Promega) digestion buffer (Thermo Fischer Scientific). Condensed evaporated water was collected by brief centrifugation using microcentrifuge (Eppendorf). The gel pieces and digestion reaction were mixed with 2.5% Trifluoretic Acids (TFA, Thermo Fischer Scientific). Peptides were extracted with 70% acetonitrile (ACN/5% TFA mixture) (Thermo Fischer Scientific). The extracts were pooled and dried to completion in SpeedVac.
The concentrated peptide mix was reconstituted in a solution of 2% ACN, 2% formic acid (FA) for MS analysis. Peptides were eluted from the column using a Dionex Ultimate 3000 Nano LC system. Using Thermo Fusion Tribrid mass spectrometer (Thermo Scientific), eluted peptides were electro sprayed. Mass spectrometer-scanning functions and HPLC gradients were controlled by the Xcalibur data system (Thermo Fischer).
Tandem mass spectra from raw files were searched against uniprot_human_170129.fasta data base using the Proteome Discoverer 2.1 (Thermo Fischer). The […] protein database was downloaded as FASTA-formatted sequences from Uniprot protein database (January 2017). […]

[3] = test system: R/R DLBCL or follicular lymphoma (FL); conditions: 800 mg BID, cited from earlier work
[4] = GC-DLBCL, EZH2 Wildtype, 144 hours, read-out: IC50 GSK126
[5] = 72 h, read-out: IC50 Romidespin
[6] = Homo sapiens, 72 h, read-out: IC50 Romidespin

SMILES: CCN(c1cc(C#CCN2CCOCC2)cc(C(=O)NCc2c(C)cc(C)[nH]c2=O)c1C)[C@H]1CC[C@H](N(C)CCOC)CC1 [EPZ011989]
sensitivity, cell viability curve (Pfeiffer; Pfeiffer (GC-DLBCL), single agent): potent sensitivity

IC50 (OCI-LY10; OCI-LY10, ABC-DLBCL, EZH2 Wildtype, 144 hours, read-out: IC50 GSK126): 6400 nM
IC50 (OCI-LY3; OCI-LY3, ABC-DLBCL, EZH2 Wildtype, 144 hours, read-out: IC50 GSK126): 7200 nM
Cmax [1]: 3.15 µM
serum AUC0-last [1]: 2828.57 ng·h/mL
Cmax ([1]; ip): 1657.5 ± 413.6 ng/mL
IC50 (OCI-LY7; OCI-LY7, GC-DLBCL, EZH2 Wildtype, 144 hours, read-out: IC50 GSK126): 4300 nM
IC50 (SU-DHL-10; SU-DHL-10, GC-DLBCL, EZH2 Y641F, Y646S, 144 hours, read-out: IC50 GSK126): 700 nM
IC50 (SU-DHL-2; SU-DHL-2, ABC-DLBCL, EZH2 Wildtype, 144 hours, read-out: IC50 GSK126): 4400 nM
IC50 (SU-DHL-6; SU-DHL-6, GC-DLBCL, EZH2 Y602N, Y646N, 144 hours, read-out: IC50 GSK126): 3100 nM
IC50 (OCI-LY1; OCI-LY1, GC-DLBCL, EZH2 Y602N, Y646N, 144 hours, read-out: IC50 GSK126): 3700 nM
SMILES: CC[C@H](C)n1cc(C)c2c(C(=O)NCc3c(C)cc(C)[nH]c3=O)cc(-c3ccc(N4CCNCC4)nc3)cc21 [GSK126]
IC50 (TLOM-1; TLOM-1, ATLL, EZH2 Overexpression, 144 hours, read-out: IC50 GSK126): 1500 nM
IC50 (Toledo; [4]): 6000 nM
IC50 (HBL-1; HBL-1, ABC-DLBCL, EZH2 Wildtype, 144 hours, read-out: IC50 GSK126): 4200 nM
IC50 (Jeko-1; Jeko-1, Mantle Cell, EZH2 Overexpression, 144 hours, read-out: IC50 GSK126): 10000 nM
IC50 (Farage; [4]): 10000 nM
IC50 (Z-138; Z-138, Mantle Cell, EZH2 Overexpression, 144 hours, read-out: IC50 GSK126): 7100 nM
IC50 (Riva; Riva, ABC-DLBCL, EZH2 Wildtype, 144 hours, read-out: IC50 GSK126): 7500 nM
IC50 (H9; H9, CTCL, EZH2 Wildtype, 144 hours, read-out: IC50 GSK126): 6100 nM
status of acetylation or methylation of H3K27 (HEK 293T cells): did not significantly change
IC50 (Pfeiffer; GC-DLBCL, EZH2 A677G, 144 hours, read-out: IC50 GSK126): 100 nM
IC50 (MT-1; MT-1, ATLL, EZH2 Overexpression, 144 hours, read-out: IC50 GSK126): 4400 nM
IC50 (PF-382; PF-382, T-ALL, EZH2 Wildtype, 144 hours, read-out: IC50 GSK126): 5600 nM
IC50 (P12; P12, T-ALL, EZH2 Wildtype, 144 hours, read-out: IC50 GSK126): 6000 nM
IC50 (MT-2; MT-2, ATLL, EZH2 Overexpression, 144 hours, read-out: IC50 GSK126): 9000 nM
IC50 (HH; CTCL, EZH2 Wildtype, 144 hours, read-out: IC50 GSK126): 4400 nM

SMILES: C/C=C1\NC(=O)[C@H]2CSSCC/C=C/[C@H](CC(=O)N[C@H](C(C)C)C(=O)N2)OC(=O)[C@H](C(C)C)NC1=O [romidepsin]
IC50 (TLOM-1; [5]): 4.3 nM
IC50 (Toledo; [6]): 1 nM
IC50 (HBL-1; HBL1, 72 h, read-out: IC50 Romidespin): 1 nM
IC50 (Jeko-1; Homo sapiens, JeKo-1, 72 h, read-out: IC50 Romidespin): 1.1 nM
IC50 (Farage; [5]): 1.7 nM
intratumor concentration [2]: below the level of detection
IC50 (Z-138; Homo sapiens, Z-138, 72 h, read-out: IC50 Romidespin): 1.1 nM
IC50 (Riva; [5]): 1.5 nM
IC50 (OCI-LY10; Homo sapiens, OCI-Ly10, 72 h, read-out: IC50 Romidespin): 1 nM
IC50 (H9; Homo sapiens, H9, 72 h, read-out: IC50 Romidespin): 1.3 nM
IC50 (Pfeiffer; [6]): 6 nM
IC50 (OCI-LY3; Homo sapiens, OCI-Ly3, 72 h, read-out: IC50 Romidespin): 1.7 nM
IC50 (MT-1; [5]): 2.8 nM
IC50 (PF-382; Homo sapiens, PF-382, 72 h, read-out: IC50 Romidespin): 3.5 nM
IC50 (OCI-LY7; Homo sapiens, OCI-Ly7, 72 h, read-out: IC50 Romidespin): 1.5 nM
IC50 (P12; P12, 72 h, read-out: IC50 Romidespin): 4.3 nM
Cmax (in vivo): 25.1 ng/mL
IC50 (SU-DHL-10; Homo sapiens, SU-DHL10, 72 h, read-out: IC50 Romidespin, SU-DHL-10, GC-DLBCL, EP300 mis mut/CREBBP trunc mut, 72-hour exposure): 2.59 nM
IC50 (SU-DHL-10; read-out: IC50 Romidespin, SU-DHL-10, GC-DLBCL, EP300 mis mut/CREBBP trunc mut, 72-hour exposure): 2.1 nM
IC50 (MT-2; Homo sapiens, MT2, 72 h, read-out: IC50 Romidespin): 2.7 nM
IC50 (HH; [6]): 1.1 nM
increase of RbAp 46/48 (RBBP4) estimated by spectral counts (RbAp 46/48 (RBBP4)): 2 fold
IC50 (SU-DHL-2; Homo sapiens, SU-DHL-2, 72 h, read-out: IC50 Romidespin): 1.3 nM
IC50 (SU-DHL-6; Homo sapiens, SU-DHL-6, 72 h, read-out: IC50 Romidespin): 2 nM
IC50 (OCI-LY1; Homo sapiens, OCI-Ly1, 72 h, read-out: IC50 Romidespin): 2.5 nM

SMILES: CCN(c1cc(-c2ccc(CN3CCOCC3)cc2)cc(C(=O)NCc2c(C)cc(C)[nH]c2=O)c1C)C1CCOCC1 [tazemetostat]
tolerability ([3]; preliminary results): well tolerated
treatment related emergent adverse events: anemia [3]: 10%
treatment related emergent adverse events: nausea [3]: 14%
treatment related emergent adverse events: thrombocytopenia [3]: 13%
